Measured values from US6491729B1.

Key:
[1] = dangerousness (Table 1)
[2] = degree of cleaning fabrics: Lab differences, whiteness and yellowness index of soil test cloth
Experimental: In the tests of the degree of cleaning fabrics in Examples 1 to 9, four kinds of standard soil test cloths are taken, the types of the cloth are respectively polyester, cotton, wool, polyester/cotton. The conditions of the tests of degree of cleaning fabrics are similar to those of the above dry-cleaning tests. After the soil test cloths have been dry cleaned, the reflectance, the whiteness index and the yellowness index thereof are measured by means of a color matching system to identify the degree of cleaning fabrics of the dry-cleaning solvents.
After the soil test cloths of polyester/cotton, wool, cotton and polyester are respectively dry-cleaned with the dry-cleaning solvents, the degrees of cleaning the soil test cloths of the dry-cleaning solvents is measured. The dry-cleaning procedure is carried out under the conditions that temperature is 25±2° C., liquid ratio is 1:40 and dry cleaning time is 30 minutes in a shaking manner and then the soil test cloths which have been dry-cleaned are dried under the temperature of 60±2° C.
Color differences can be analyzed according to Munsell Color Solid Theory and a bright and a chroma of a hue can be decided by means of a solid rectangular coordinate.
According to an opponent-color coordinate recommended by the CIE (Commission International de I'Eclairage) Society in 1976, wherein a redness-greenness coordinate is set to be the “a” coordinate with redness as a positive value and greenness as a negative together with a yellowness-blueness coordinate forms the “b” coordinate wherein yellowness indicates a positive value and blueness indicates a negative value, the two sets of coordinates form a two dimensional coordinate further with a third coordinate which indicates the bright to form the opponent-color coordinate designed by the CIE Lab, a bright value “L” in the third coordinate, a chroma value “a” in the redness-greenness coordinate and a chroma value “b” in the yellowness-blueness coordinate are related to red, blue, green tristimulus values as shown in the following:
ΔE=((ΔL)^2+(Δa)^2+(Δb)^2)^½
In FIG. 1, Δc indicates the chroma difference between a chroma value of a specimen sample and a chroma value of a standard sample, and Δh indicates the hue angle difference. By means of the analysis of chroma difference and hue angle difference, the two values Δc and Δh, can be easily obtained.

[3] = physical properties of the solvent; conditions: Table 1
[4] = soil test cloth of cotton, dry cleaned five times
[5] = soil test cloth of cotton, dry cleaned one time
[6] = soil test cloth of cotton, dry cleaned two times
[7] = soil test cloth of polyester/cotton, dry cleaned five times
[8] = soil test cloth of polyester/cotton, dry cleaned one time
[9] = soil test cloth of polyester/cotton, dry cleaned two times
[10] = soil test cloth of polyester, dry cleaned five times
[11] = soil test cloth of polyester, dry cleaned one time
[12] = soil test cloth of polyester, dry cleaned two times
[13] = soil test cloth of wool, dry cleaned five times
[14] = soil test cloth of wool, dry cleaned one time
[15] = soil test cloth of wool, dry cleaned two times

For ClC(Cl)=C(Cl)Cl [perchloroethylene], the Dangerousness [1] was “medium toxicity”, the ΔE [2, 4] was 2.88 and the ΔL [2, 4] was 2.8. The Δa [2, 4] was −0.02, the Δb [2, 4] was −0.68 and the Δc [2, 4] was −0.66. It also gave a Δh [2, 4] of 0.16, a yellowness index ([2]; soil test cloth of cotton, dry cleaned five times, before dry cleaned 3.85) of 2.18 and a whiteness index ([2]; soil test cloth of cotton, dry cleaned five times, before dry cleaned 39.47) of 45.97. It also gave a ΔE [2, 5] of 4.27, a ΔL [2, 5] of 4.22 and a Δa [2, 5] of −0.02. The Δb [2, 5] was −0.61, the Δc [2, 5] was −0.6 and the Δh [2, 5] was 0.14. The yellowness index ([2]; soil test cloth of cotton, dry cleaned one time, before dry cleaned 3.85) was 2.31, the whiteness index ([2]; soil test cloth of cotton, dry cleaned one time, before dry cleaned 39.47) was 47.96 and the ΔE [2, 6] was 4.09. The ΔL [2, 6] was 4.04, the Δa [2, 6] was −0.04 and the Δb [2, 6] was −0.64. For the same compound, the Δc [2, 6] was −0.62, the Δh [2, 6] was 0.18 and the yellowness index ([2]; soil test cloth of cotton, dry cleaned two times, before dry cleaned 3.85) was 2.23. It also gave a whiteness index ([2]; soil test cloth of cotton, dry cleaned two times, before dry cleaned 39.47) of 47.78, a ΔE [2, 7] of 2.83 and a ΔL [2, 7] of 2.8. For the same compound, the Δa [2, 7] was −0.06, the Δb [2, 7] was −0.4 and the Δc [2, 7] was −0.39. The Δh [2, 7] was 0.13, the yellowness index ([2]; soil test cloth of polyester/cotton, dry cleaned five times, before dry cleaned 3.41) was 2.33 and the whiteness index ([2]; soil test cloth of polyester/cotton, dry cleaned five times, before dry cleaned 37.82) was 43.16. For the same compound, the ΔE [2, 8] was 3.29, the ΔL [2, 8] was 3.26 and the Δa [2, 8] was −0.04. It also gave a Δb [2, 8] of −0.41, a Δc [2, 8] of −0.4 and a Δh [2, 8] of 0.11. The yellowness index ([2]; soil test cloth of polyester/cotton, dry cleaned one time, before dry cleaned 3.41) was 2.32, the whiteness index ([2]; soil test cloth of polyester/cotton, dry cleaned one time, before dry cleaned 37.82) was 43.87 and the ΔE [2, 9] was 3.96. For the same compound, the ΔL [2, 9] was 3.94, the Δa [2, 9] was −0.07 and the Δb [2, 9] was −0.43. The Δc [2, 9] was −0.41, the Δh [2, 9] was 0.15 and the yellowness index ([2]; soil test cloth of polyester/cotton, dry cleaned two times, before dry cleaned 3.41) was 2.23. It also gave a whiteness index ([2]; soil test cloth of polyester/cotton, dry cleaned two times, before dry cleaned 37.82) of 44.96, a ΔE [2, 10] of 5.67 and a ΔL [2, 10] of 5.26. It also gave a Δa [2, 10] of −0.14, a Δb [2, 10] of −0.14 and a Δc [2, 10] of 0.15. The Δh [2, 10] was −0.13, the whiteness index ([2]; soil test cloth of polyester, dry cleaned five times, before dry cleaned 45.11) was 55.02 and the yellowness index ([2]; soil test cloth of polyester, dry cleaned five times, before dry cleaned −10.35) was −10.21. The ΔE [2, 11] was 6.68, the ΔL [2, 11] was 6.68 and the Δa [2, 11] was −0.19. It also gave a Δb [2, 11] of 0.07, a Δc [2, 11] of −0.06 and a Δh [2, 11] of −0.19. It also gave a whiteness index ([2]; soil test cloth of polyester, dry cleaned one time, before dry cleaned 45.11) of 56.16, a yellowness index ([2]; soil test cloth of polyester, dry cleaned one time, before dry cleaned −10.35) of −9.61 and a ΔE [2, 12] of 7.61. It also gave a ΔL [2, 12] of 7.6, a Δa [2, 12] of −0.17 and a Δb [2, 12] of −0.2. The Δc [2, 12] was 0.21, the Δh [2, 12] was −0.16 and the whiteness index ([2]; soil test cloth of polyester, dry cleaned two times, before dry cleaned 45.11) was 58.86. The yellowness index ([2]; soil test cloth of polyester, dry cleaned two times, before dry cleaned −10.35) was −10.22, the ΔE [2, 13] was 1.9 and the ΔL [2, 13] was −1.66. The Δa [2, 13] was −0.1, the Δb [2, 13] was −0.93 and the Δc [2, 13] was −0.9. For the same compound, the Δh [2, 13] was 0.27, the yellowness index ([2]; soil test cloth of wool, dry cleaned five times, before dry cleaned 11.22) was 9 and the whiteness index ([2]; soil test cloth of wool, dry cleaned five times, before dry cleaned 22.57) was 23.54. It also gave a ΔE [2, 14] of 2.1, a ΔL [2, 14] of −2.1 and a Δa [2, 14] of −0.04. For the same compound, the Δb [2, 14] was −0.03, the Δc [2, 14] was −0.03 and the Δh [2, 14] was 0.05. It also gave a yellowness index ([2]; soil test cloth of wool, dry cleaned one time, before dry cleaned 11.22) of 11.37, a whiteness index ([2]; soil test cloth of wool, dry cleaned one time, before dry cleaned 22.57) of 20.62 and a ΔE [2, 15] of 2.09. It also gave a ΔL [2, 15] of −1.91, a Δa [2, 15] of −0.09 and a Δb [2, 15] of −0.83. It also gave a Δc [2, 15] of −0.8, a Δh [2, 15] of 0.23 and a yellowness index ([2]; soil test cloth of wool, dry cleaned two times, before dry cleaned 11.22) of 9.3. For the same compound, the whiteness index ([2]; soil test cloth of wool, dry cleaned two times, before dry cleaned 22.57) was 22.99, the “increase of whiteness index” value ([2]; soil test cloth of wool, times not stated) was “does not change appreciably” and the Boiling point [3] was 121 °C. For the same compound, the Solubility [3] was “Insoluble in water,” and the Specific gravity [3] was 1.625.
